The values below are quoted from earlier work in patent publication US20250032488A1, “METHODS OF TREATMENT USING LOU064” (NOVARTIS AG, priority 2021, published 2025).

Where “and” joins values, the source holds several entries; their conditions need not be identical. Identical values can stand only once. Like-named read-outs stand apart in the source and are kept apart here.

For data set [1] the following is noted: 75 mg b.i.d., Phase II; cited from earlier work.
The conditions of data set [2]: human, in vivo; cited from earlier work.
The conditions of data set [3]: higher dose treatment arms, phase IIa; cited from earlier work.

Turning to `C=CC(=O)N1CCC(CNc2ncnc(N)c2-c2ccc(Oc3ccccc3)cc2)CC1` [evobrutinib], the Dose-limiting side effect entry in data set [1] is “dose-limiting liver enzyme elevations”.

With `C=CC(=O)N1CCC[C@@H](n2c(=O)n(-c3ccc(Oc4ccccc4)cc3)c3c(N)nccc32)C1` [tolebrutinib], the Dose-limiting side effect entry in data set [2] is “dose-limiting diarrhea”.

With `C[C@H]1CN(C2COC2)CCN1c1ccc(Nc2cc(-c3ccnc(N4CCn5c(cc6c5CC(C)(C)C6)C4=O)c3CO)cn(C)c2=O)nc1` [fenebrutinib], in data set [3], the “Subjects with transient grade 3 elevations of ALT and/or AST” value is 8.3% and 6.3%.
